According to patent publication US6737383B1, “Herbicidal oxadiazolidines” (priority 1999, dated 2004):

Columns and labels:
duck salad = test: Test B flood test duck salad; type: in vivo, Heteranthera limosa
In short: (§1)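 Flood test on plants grown to the 2-leaf stage; treated plants kept in greenhouse twelve to sixteen days, then visually rated against controls on a 0 (no effect) to 10 (complete control) scale.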

green foxtail [1] = test: Test E green foxtail; type: in vivo, Setaria viridis; conditions: Preemergence
sugar beet = test: Test B pre/postemergence sugar beet; type: in vivo, Beta vulgaris
In short: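 Herbicidal effect was estimated by eye on a ten-point control scale after plants spent twelve to sixteen days in a greenhouse following soil or foliar treatment. Foliar sprays targeted plants at one to four leaves; all doses were formulated in a non-phytotoxic solvent with surfactant.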

winter wheat [2] = test: Test E winter wheat; type: in vivo, Triticum aestivum; conditions: Postemergence
In short: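 Compound formulated with surfactant in a non-phytotoxic solvent (postemergence: young 1- to 4-leaf plants); held in greenhouse approx. 21–28 days; visual assessment against untreated plants.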

smallflower flatsedge = test: Test B flood test smallflower flatsedge; type: in vivo, Cyperus difformis
In short: as §1

winter barley = test: Test E winter barley; type: in vivo, Hordeum vulgare; conditions: Preemergence
winter wheat [3] = test: Test E winter wheat; type: in vivo, Triticum aestivum; conditions: Preemergence
Green foxtail [4] = test: Test D green foxtail; type: in vivo
In short: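 Seeds were sown in greenhouse pots, one species per pot or compartment. Compounds were in a non-phytotoxic solvent mixture with surfactant; preemergence applications went on the sandy loam surface within one day of planting. Injury was rated visually after 14 to 21 days, 0 (none) to 100 (complete control).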

rice = test: Test B flood test rice; type: in vivo, Oryza sativa
In short: as §1

wild oat = test: Test E wild oat; type: in vivo, Avena fatua; conditions: Preemergence
Italian ryegrass = test: Test E Italian ryegrass; type: in vivo, Lolium multiflorum; conditions: Preemergence
blackgrass = test: Test E blackgrass; type: in vivo, Alopecurus myosuroides; conditions: Preemergence
bamyardgrass = test: Test B flood test barnyardgrass; type: in vivo, Echinochloa crus-galli
In short: as §1

[5] = Postemergence, Rate 62 g/ha, scale 0 to 10, 0 is no effect, 10 is complete control
[6] = Rate 62 g/ha, headed Pre-emergence (flood test species), scale 0 to 10 (0 no effect, 10 complete control)
[7] = Rate 125 g/ha, Postemergence section (flood test species), scale 0 to 10, 0 no effect, 10 complete control
[8] = Rate 125 g/ha, Pre-emergence, flood test species, scale 0 to 10 where 0 is no effect and 10 is complete control
[9] = Rate 250 g/ha, headed Pre-emergence (flood test species), scale 0 to 10 (0 no effect, 10 complete control)
[10] = Rate 500 g/ha, Postemergence section of Table B, 0 to 10 scale (0 no effect, 10 complete control)
[11] = Rate 500 g/ha, headed Pre-emergence (flood test species), scale 0 to 10 (0 no effect, 10 complete control)
[12] = Rate 1000 g/ha, Pre-emergence (as headed), scale 0 to 10
[13] = Rate 2000 g/ha, Pre-emergence (as headed), scale 0 to 10
[14] = flood test, listed under Postemergence, Rate 250 g/ha, scale 0 to 10, 0 no effect, 10 complete control
[15] = Rate 500 g/ha, 0 to 100 scale where 0 is no effect and 100 is complete control
[16] = Rate 1000 g/ha, 0 to 100 scale where 0 is no effect and 100 is complete control
[17] = Preemergence, Rate 250 g/ha, scale of 0 to 10 where 0 is no effect and 10 is complete control
[18] = Rate 250 g/ha, 0 to 100 scale (0 no effect, 100 complete control)
[19] = Rate 500 g/ha, 0 to 100 scale, 0 no effect, 100 complete control
[20] = Pre-emergence, Rate 1000 g/ha, scale 0 to 10 (0 no effect, 10 complete control)
[21] = Preemergence; Rate 16 g/ha; 0 to 100 scale, 0 no injury, 100 complete control
[22] = Preemergence; Rate 32 g/ha; 0 to 100 scale, 0 no injury, 100 complete control
[23] = Rate 16 g/ha; Preemergence; 0 to 100 scale, 0 no injury, 100 complete control
[24] = Rate 32 g/ha; Preemergence; 0 to 100 scale, 0 no injury, 100 complete control
[25] = Rate 64 g/ha, Preemergence; 0 to 100 scale, 0 no injury, 100 complete control
[26] = Rate 125 g/ha, Preemergence; 0 to 100 scale, 0 no injury, 100 complete control
[27] = Rate 2000 g/ha, Pre-emergence (as headed), scale 0 to 10, 0 no effect, 10 complete control
[28] = Postemergence (flood test species), Rate 125 g/ha, scale of 0 to 10 where 0 is no effect and 10 is complete control
[29] = Rate 62 g/ha, Postemergence section, flood test species, scale of 0 to 10 where 0 is no effect and 10 is complete control
[30] = Rate 500 g/ha, listed under Postemergence (flood test species), scale 0 to 10, 0 no effect, 10 complete control
[31] = Rate 125 g/ha, 0 to 100 scale (0 no effect, 100 complete control)
[32] = Rate 250 g/ha, Postemergence (flood test), scale 0 to 10, 0 is no effect, 10 is complete control

Cc1cccc(C)c1-n1c(=O)on(C(=O)N(c2ccc(F)cc2)C(C)C)c1=O [Compound 18]
Ducksalad plant response rating (duck salad; [5]): 0
Ducksalad plant response rating (duck salad; [6]): 0
Ducksalad plant response rating (duck salad; [7]): 7
Ducksalad plant response rating (duck salad; [8]): 0
Ducksalad plant response rating (duck salad; [9]): 0
Ducksalad plant response rating (duck salad; [10]): 7
Plant response rating, Ducksalad (duck salad; [11]): 1
Ducksalad plant response rating (duck salad; [12]): 0
Ducksalad plant response rating (duck salad; [13]): 0
Ducksalad plant response rating (duck salad; [14]): 7
Plant response rating, Green foxtail (green foxtail [1]; Rate 250 g/ha, 0 to 100 scale): 30
Plant response rating, Green foxtail (green foxtail [1]; [15]): 50
Plant response rating, Green foxtail (green foxtail [1]; [16]): 70
Sugarbeets plant response rating (sugar beet; [5]): 0
Sugarbeets plant response rating (sugar beet; Postemergence, Rate 250 g/ha, scale 0 to 10, 0 no effect, 10 complete control): 0
Plant response rating, Sugarbeets (sugar beet; Preemergence, Rate 62 g/ha, scale 0 to 10, 0 is no effect, 10 is complete control): 0
Plant response rating, Sugarbeets (sugar beet; Preemergence, Rate 125 g/ha, scale 0 to 10 (0 no effect, 10 complete control)): 0
Plant response rating, Sugarbeets (sugar beet; [17]): 2
Sugarbeets plant response rating (sugar beet; Preemergence, Rate 500 g/ha, scale 0 (no effect) to 10 (complete control)): 4
Sugarbeets plant response rating (sugar beet; Rate 125 g/ha, Postemergence, scale 0 to 10, 0 no effect, 10 complete control): 0
Plant response rating, Wheat (winter) (winter wheat [2]; [18]): 55
Plant response rating, Wheat (winter) (winter wheat [2]; [19]): 65
S. Flatsedge plant response rating (smallflower flatsedge; [5]): 0
S. Flatsedge plant response rating (smallflower flatsedge; [20]): 0
S. Flatsedge plant response rating (smallflower flatsedge; [6]): 0
S. Flatsedge plant response rating (smallflower flatsedge; [7]): 0
S. Flatsedge plant response rating (smallflower flatsedge; [8]): 0
S. Flatsedge plant response rating (smallflower flatsedge; [9]): 0
Plant response rating, S. Flatsedge (smallflower flatsedge; [11]): 6
S. Flatsedge plant response rating (smallflower flatsedge; [13]): 0
S. Flatsedge plant response rating (smallflower flatsedge; [14]): 6
Plant response rating, Barley (winter) (winter barley; Rate 250 g/ha, 0 to 100 scale): 20
Plant response rating, Barley (winter) (winter barley; [15]): 30
Plant response rating, Barley (winter) (winter barley; [16]): 50
Plant response rating, Wheat (winter) (winter wheat [3]; Rate 250 g/ha, 0 to 100 scale): 0
Plant response rating, Wheat (winter) (winter wheat [3]; [15]): 10
Plant response rating, Wheat (winter) (winter wheat [3]; [16]): 20
Plant response rating, Green foxtail (Green foxtail [4]; [21]): 0
Plant response rating, Green foxtail (Green foxtail [4]; [22]): 0
Plant response rating, Green foxtail (Green foxtail [4]; [23]): 0
Plant response rating, Green foxtail (Green foxtail [4]; [24]): 0
Green foxtail plant response rating (Green foxtail [4]; [25]): 85
Plant response rating, Green foxtail (Green foxtail [4]; [25]): 85
Green foxtail plant response rating (Green foxtail [4]; [26]): 85
Plant response rating, Green foxtail (Green foxtail [4]; [26]): 85
Rice plant response rating (rice; [5]): 0
Rice plant response rating (rice; [6]): 0
Rice plant response rating (rice; [7]): 0
Rice plant response rating (rice; [8]): 0
Rice plant response rating (rice; [9]): 0
Rice plant response rating (rice; [10]): 5
Plant response rating, Rice (rice; [11]): 0
Rice plant response rating (rice; [12]): 0
Rice plant response rating (rice; [13]): 0
Rice plant response rating (rice; [14]): 2
Plant response rating, Wild oat (wild oat; [15]): 40
Plant response rating, Wild oat (wild oat; [16]): 50
Plant response rating, I. Ryegrass (Italian ryegrass; Rate 250 g/ha, 0 to 100 scale): 40
Plant response rating, I. Ryegrass (Italian ryegrass; [15]): 60
Plant response rating, I. Ryegrass (Italian ryegrass; [16]): 70
Plant response rating, Blackgrass (blackgrass; Rate 250 g/ha, 0 to 100 scale): 10
Plant response rating, Blackgrass (blackgrass; [15]): 25
Plant response rating, Blackgrass (blackgrass; [16]): 85
Barnyardgrass plant response rating (bamyardgrass; [5]): 0
Barnyardgrass plant response rating (bamyardgrass; [6]): 2
Barnyardgrass plant response rating (bamyardgrass; [7]): 0
Barnyardgrass plant response rating (bamyardgrass; [8]): 2
Barnyardgrass plant response rating (bamyardgrass; [9]): 2
Barnyardgrass plant response rating (bamyardgrass; [10]): 10
Plant response rating, Barnyardgrass (bamyardgrass; [11]): 8
Barnyardgrass plant response rating (bamyardgrass; [12]): 9
Barnyardgrass plant response rating (bamyardgrass; [27]): 9
Barnyardgrass plant response rating (bamyardgrass; [14]): 9

C=CCn1c(=O)on(C(=O)N(c2ccc(Cl)cc2)C(C)C)c1=O [Compound 105]
Ducksalad plant response rating (duck salad; [28]): 0
Ducksalad plant response rating (duck salad; [29]): 0
Ducksalad plant response rating (duck salad; [9]): 0
Plant response rating, Ducksalad (duck salad; [11]): 0
Ducksalad plant response rating (duck salad; [30]): 0
Ducksalad plant response rating (duck salad; [12]): 0
Ducksalad plant response rating (duck salad; [13]): 0
Ducksalad plant response rating (duck salad; [14]): 0
Plant response rating, Green foxtail (green foxtail [1]; [31]): 55
Plant response rating, Green foxtail (green foxtail [1]; Rate 250 g/ha, 0 to 100 scale): 90
Plant response rating, Green foxtail (green foxtail [1]; [15]): 100
Sugarbeets plant response rating (sugar beet; Postemergence, Rate 125 g/ha, scale of 0 to 10 where 0 is no effect and 10 is complete control): 0
Sugarbeets plant response rating (sugar beet; Preemergence, Rate 62 g/ha, scale 0 to 10 (0 no effect, 10 complete control)): 0
Sugarbeets plant response rating (0 to 10 scale) (sugar beet; Preemergence, Rate 125 g/ha, 0 is no effect, 10 is complete control): 1
Plant response rating, Sugarbeets (sugar beet; [17]): 4
Sugarbeets plant response rating (sugar beet; Preemergence, Rate 500 g/ha, scale 0 to 10 (0 no effect, 10 complete control)): 9
Sugarbeets plant response rating (sugar beet; Rate 62 g/ha, Postemergence, scale of 0 to 10 where 0 is no effect and 10 is complete control): 0
Plant response rating, Sugarbeets (sugar beet; Rate 250 g/ha, Postemergence, scale 0 to 10, 0 is no effect, 10 is complete control): 0
Sugarbeets plant response rating (sugar beet; Rate 500 g/ha, Postemergence, scale 0 to 10, 0 no effect, 10 complete control): 0
Plant response rating, Wheat (winter) (winter wheat [2]; Rate 125 g/ha, 0 to 100 scale): 10
Plant response rating, Wheat (winter) (winter wheat [2]; [18]): 10
Plant response rating, Wheat (winter) (winter wheat [2]; [19]): 20
S. Flatsedge plant response rating (smallflower flatsedge; [28]): 0
S. Flatsedge plant response rating (smallflower flatsedge; [20]): 0
S. Flatsedge plant response rating (smallflower flatsedge; [29]): 0
Plant response rating, S. Flatsedge (smallflower flatsedge; [32]): 0
S. Flatsedge plant response rating (smallflower flatsedge; [9]): 0
Plant response rating, S. Flatsedge (smallflower flatsedge; [11]): 0
S. Flatsedge plant response rating (smallflower flatsedge; [30]): 0
S. Flatsedge plant response rating (smallflower flatsedge; [13]): 0
Plant response rating, Barley (winter) (winter barley; [31]): 0
Plant response rating, Barley (winter) (winter barley; Rate 250 g/ha, 0 to 100 scale): 0
Plant response rating, Barley (winter) (winter barley; [15]): 10
Plant response rating, Wheat (winter) (winter wheat [3]; [31]): 10
Plant response rating, Wheat (winter) (winter wheat [3]; Rate 250 g/ha, 0 to 100 scale): 0
Plant response rating, Wheat (winter) (winter wheat [3]; [15]): 10
Plant response rating, Green foxtail (Green foxtail [4]; [21]): 75
Plant response rating, Green foxtail (Green foxtail [4]; [22]): 85
Plant response rating, Green foxtail (Green foxtail [4]; [23]): 75
Plant response rating, Green foxtail (Green foxtail [4]; [24]): 100
Green foxtail plant response rating (Green foxtail [4]; [25]): 100
Plant response rating, Green foxtail (Green foxtail [4]; [25]): 100
Green foxtail plant response rating (Green foxtail [4]; [26]): 100
Plant response rating, Green foxtail (Green foxtail [4]; [26]): 100
Plant response rating, Green foxtail (Green foxtail [4]; Rate 250 g/ha; Preemergence; 0 to 100 scale): 100
Plant response rating, Green foxtail (Green foxtail [4]; Rate 500 g/ha, Preemergence; 0 to 100 scale): 100
Rice plant response rating (rice; [28]): 0
Rice plant response rating (rice; [29]): 0
Plant response rating, Rice (rice; [32]): 0
Rice plant response rating (rice; [9]): 0
Plant response rating, Rice (rice; [11]): 0
Rice plant response rating (rice; [30]): 0
Rice plant response rating (rice; [12]): 0
Rice plant response rating (rice; [13]): 0
Plant response rating, Wild oat (wild oat; [31]): 30
Plant response rating, Wild oat (wild oat; [15]): 55
Plant response rating, I. Ryegrass (Italian ryegrass; [31]): 30
Plant response rating, I. Ryegrass (Italian ryegrass; Rate 250 g/ha, 0 to 100 scale): 30
Plant response rating, I. Ryegrass (Italian ryegrass; [15]): 85
Plant response rating, Blackgrass (blackgrass; [31]): 20
Plant response rating, Blackgrass (blackgrass; Rate 250 g/ha, 0 to 100 scale): 50
Plant response rating, Blackgrass (blackgrass; [15]): 50
Barnyardgrass plant response rating (bamyardgrass; [5]): 0
Barnyardgrass plant response rating (bamyardgrass; [7]): 0
Barnyardgrass plant response rating (bamyardgrass; [9]): 0
Plant response rating, Barnyardgrass (bamyardgrass; [11]): 0
Barnyardgrass plant response rating (bamyardgrass; [30]): 0
Barnyardgrass plant response rating (bamyardgrass; [12]): 0
Barnyardgrass plant response rating (bamyardgrass; [27]): 0
Barnyardgrass plant response rating (bamyardgrass; [14]): 0
